“And” between values parts separate entries of the source, which are not always exact repeats. Equal values may be shown once.
How the values were obtained:
[1] = target: T1, CYP1A2 (Homo sapiens, UniProt P05177); assay: Human cytochrome P450 inhibition, 1A2; assay type: in vitro ADME; settings: read-out: % inhibition of CYP 1A2
T1 sequence (P05177 1-516): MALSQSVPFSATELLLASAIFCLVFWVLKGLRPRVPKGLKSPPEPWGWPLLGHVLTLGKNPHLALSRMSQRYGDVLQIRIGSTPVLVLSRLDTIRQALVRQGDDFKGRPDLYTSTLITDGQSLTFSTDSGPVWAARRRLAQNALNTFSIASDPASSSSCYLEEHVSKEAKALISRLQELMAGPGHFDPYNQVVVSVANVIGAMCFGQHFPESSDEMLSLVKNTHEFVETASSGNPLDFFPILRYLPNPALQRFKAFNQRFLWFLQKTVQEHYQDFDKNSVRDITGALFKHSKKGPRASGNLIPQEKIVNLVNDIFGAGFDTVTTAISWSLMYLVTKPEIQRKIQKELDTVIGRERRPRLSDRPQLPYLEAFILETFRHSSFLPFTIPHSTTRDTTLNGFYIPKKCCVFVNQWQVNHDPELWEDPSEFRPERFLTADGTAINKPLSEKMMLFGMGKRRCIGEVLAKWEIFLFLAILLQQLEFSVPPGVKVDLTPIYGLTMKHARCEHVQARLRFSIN
Protocol: Assays examining mouse and human liver microsomal stability, kinetic aqueous solubility, mouse and human plasma protein binding and stability, and human cytochrome P450 inhibition characteristics of the compounds were run by BioDuro (San Diego, CA), using standard protocols as previously described [37]. hERG inhibition assays were also performed by BioDuro.

[2] = tested on: macrophage phagosomal acidification in BMDMs; assay: Phagosomal maturation assay, carboxyfluorescein beads (pH readout); assay type: cell-based, mouse; settings: for 490 nm/450 nm, Average: average of 5 replicates
Protocol: Carboxyfluorescein (pH readout), DQ-BSA/Alexa Fluor 594 (AF594) (proteolysis readout), and BAC/AF594 (Cl^− readout) beads were generated essentially as previously described, except that 10,10′-Bis[3-carboxylpropyl]-9,9′-biacridinium dinitrate di-NHS ester (BAC-SE) was purchased from emp Biotech LLC. BMDMs were isolated from C57BL/6J mice (The Jackson Laboratory) and maintained as described above. A quantity of 2 × 10^5 macrophages/well were seeded into 96-well clear bottom black plates and utilized in assays 1 to 2 days post-seeding. […] Assay buffer consisted of PBS (pH 7.2), supplemented with 5% FBS, 5 mM dextrose, 1 mM CaCl2, 2.7 mM KCl, and 0.5 mM MgCl2 in the case of assays with the carboxyfluorescein or DQ-BSA/AF594 beads. For assays with the BAC/AF594 beads, assay buffer consisted of PBS (pH 7.2), supplemented with 5% FBS, 5 mM dextrose, 1 mM calcium acetate, 1.35 mM K2SO4, and 0.5 mM MgSO4 [9]. Sensor beads at approximately 2 to 5 beads/macrophage in appropriate assay buffer were finally added, with data acquisition on a Biotek Synergy H1 microplate reader with bottom read signal detection started within 2 to 3 minutes of bead addition. Excitation/emission wavelengths were 450 nm/520 nm and 490 nm/520 nm for carboxyfluorescein, 490 nm/520 nm for DQ-BSA, 365 nm/505 nm for BAC, and 590 nm/617 nm for AF594. Each experiment was run with a total of 3 to 5 replicate wells/condition, with temperature maintained at 37°C throughout the assay. Wells were read every 2 minutes for 2 hours for the carboxyfluorescein bead assays, every 2 minoutes for 4 hours for the DQ-BSA/AF594 bead assays, and every 1 minute for 2 hours for the BAC/AF594 bead assays. Analyses of the results were performed as previously described.

In the case of `CCSc1ncc(CN2CCN(c3nc4ccccc4o3)CC2)cn1` [C6, 2-(4-((2-(ethylthio)pyrimidin-5-yl)methyl)piperazin-1-yl)benzo[d]oxazole], the inhibition at 10 µM [1] was < 1%, the “Effect on macrophage phagosomal acidification” value ([2]; 10 μM, uninfected BMDMs) was “did not alter” and the “490 nm/450 nm, Average” value ([2]; time 0 minutes) was 4.858. For the same compound, the “490 nm/450 nm, Average” value ([2]; time 2 minutes) was 4.93, the “490 nm/450 nm, Average” value ([2]; time 4 minutes) was 4.883 and the “490 nm/450 nm, single replicates (Rep 1-5)” value (“490 nm/450 nm … (Rep 1-5)” below) ([2]; time 6 minutes) was 4.9284 and 4.8623 and 4.895 and 4.851 and 4.867. For the same compound, the “490 nm/450 nm, Average” value ([2]; time 6 minutes) was 4.881, the “490 nm/450 nm … (Rep 1-5)” value ([2]; time 8 minutes) was 4.803 and 4.864 and 4.815 and 4.7957 and 4.8066 and the “490 nm/450 nm, Average” value ([2]; time 8 minutes) was 4.817. For the same compound, the “490 nm/450 nm … (Rep 1-5)” value ([2]; time 10 minutes) was 4.783 and 4.786 and 4.81 and 4.727 and 4.764, the “490 nm/450 nm, Average” value ([2]; time 10 minutes) was 4.774 and the “490 nm/450 nm … (Rep 1-5)” value ([2]; time 12 minutes) was 4.5604 and 4.6849 and 4.647 and 4.525 and 4.478. The “490 nm/450 nm, Average” value ([2]; time 12 minutes) was 4.579, the “490 nm/450 nm … (Rep 1-5)” value ([2]; time 14 minutes) was 4.45 and 4.492 and 4.497 and 4.303 and 4.234 and the “490 nm/450 nm, Average” value ([2]; time 14 minutes) was 4.395. The “490 nm/450 nm … (Rep 1-5)” value ([2]; time 16 minutes) was 4.182 and 4.214 and 4.296 and 4.029 and 3.894, the “490 nm/450 nm, Average” value ([2]; time 16 minutes) was 4.123 and the “490 nm/450 nm … (Rep 1-5)” value ([2]; time 18 minutes) was 3.914 and 3.991 and 4.055 and 3.796 and 3.692. For the same compound, the “490 nm/450 nm, Average” value ([2]; time 18 minutes) was 3.89, the “490 nm/450 nm … (Rep 1-5)” value ([2]; time 20 minutes) was 3.661 and 3.707 and 3.803 and 3.557 and 3.477 and the “490 nm/450 nm, Average” value ([2]; time 20 minutes) was 3.641. For the same compound, the “490 nm/450 nm … (Rep 1-5)” value ([2]; time 22 minutes) was 3.443 and 3.455 and 3.57 and 3.319 and 3.292, the “490 nm/450 nm, Average” value ([2]; time 22 minutes) was 3.416 and the “490 nm/450 nm … (Rep 1-5)” value ([2]; time 24 minutes) was 3.1867 and 3.242 and 3.389 and 3.087 and 3.065. For the same compound, the “490 nm/450 nm, Average” value ([2]; time 24 minutes) was 3.194, the “490 nm/450 nm … (Rep 1-5)” value ([2]; time 26 minutes) was 3.004 and 3.052 and 3.169 and 2.941 and 2.895 and the “490 nm/450 nm, Average” value ([2]; time 26 minutes) was 3.012. The “490 nm/450 nm … (Rep 1-5)” value ([2]; time 28 minutes) was 2.852 and 2.904 and 3.023 and 2.803 and 2.7626, the “490 nm/450 nm, Average” value ([2]; time 28 minutes) was 2.869 and the “490 nm/450 nm … (Rep 1-5)” value ([2]; time 30 minutes) was 2.719 and 2.762 and 2.859 and 2.651 and 2.679. For the same compound, the “490 nm/450 nm, Average” value ([2]; time 30 minutes) was 2.734, the “490 nm/450 nm … (Rep 1-5)” value ([2]; time 32 minutes) was 2.588 and 2.623 and 2.733 and 2.5744 and 2.581 and the “490 nm/450 nm, Average” value ([2]; time 32 minutes) was 2.62. For the same compound, the “490 nm/450 nm … (Rep 1-5)” value ([2]; time 34 minutes) was 2.506 (2×) and 2.556 and 2.644 and 2.5507, the “490 nm/450 nm, Average” value ([2]; time 34 minutes) was 2.552 and the “490 nm/450 nm … (Rep 1-5)” value ([2]; time 36 minutes) was 2.483 and 2.493 and 2.575 and 2.447 and 2.499. The “490 nm/450 nm, Average” value ([2]; time 36 minutes) was 2.499, the “490 nm/450 nm … (Rep 1-5)” value ([2]; time 38 minutes) was 2.411 and 2.458 and 2.4978 and 2.4066 and 2.452 and the “490 nm/450 nm, Average” value ([2]; time 38 minutes) was 2.445. The “490 nm/450 nm … (Rep 1-5)” value ([2]; time 40 minutes) was 2.369 and 2.38 and 2.4986 and 2.406 and 2.442, the “490 nm/450 nm, Average” value ([2]; time 40 minutes) was 2.419 and the “490 nm/450 nm … (Rep 1-5)” value ([2]; time 42 minutes) was 2.364 and 2.3783 and 2.434 and 2.346 and 2.427. For the same compound, the “490 nm/450 nm, Average” value ([2]; time 42 minutes) was 2.3898, the “490 nm/450 nm … (Rep 1-5)” value ([2]; time 44 minutes) was 2.319 and 2.337 and 2.405 and 2.355 and 2.4128 and the “490 nm/450 nm, Average” value ([2]; time 44 minutes) was 2.3655. For the same compound, the “490 nm/450 nm, Average” value ([2]; time 46 minutes) was 2.351, the “490 nm/450 nm, Average” value ([2]; time 48 minutes) was 2.35 and the “490 nm/450 nm, Average” value ([2]; time 50 minutes) was 2.351. The “490 nm/450 nm, Average” value ([2]; time 52 minutes) was 2.342, the “490 nm/450 nm, Average” value ([2]; time 54 minutes) was 2.342 and the “490 nm/450 nm, Average” value ([2]; time 56 minutes) was 2.334. For the same compound, the “490 nm/450 nm, Average” value ([2]; time 58 minutes) was 2.337, the “490 nm/450 nm, Average” value ([2]; time 60 minutes) was 2.3392 and the “490 nm/450 nm, Average” value ([2]; time 62 minutes) was 2.354. For the same compound, the “490 nm/450 nm, Average” value ([2]; time 64 minutes) was 2.349, the “490 nm/450 nm, Average” value ([2]; time 66 minutes) was 2.351 and the “490 nm/450 nm, Average” value ([2]; time 68 minutes) was 2.358. The “490 nm/450 nm, Average” value ([2]; time 70 minutes) was 2.362, the “490 nm/450 nm, Average” value ([2]; time 72 minutes) was 2.363 and the “490 nm/450 nm, Average” value ([2]; time 74 minutes) was 2.3781. For the same compound, the “490 nm/450 nm, Average” value ([2]; time 76 minutes) was 2.3813, the “490 nm/450 nm, Average” value ([2]; time 78 minutes) was 2.38 and the “490 nm/450 nm, Average” value ([2]; time 80 minutes) was 2.392. For the same compound, the “490 nm/450 nm, Average” value ([2]; time 82 minutes) was 2.387, the “490 nm/450 nm, Average” value ([2]; time 84 minutes) was 2.389 and the “490 nm/450 nm, Average” value ([2]; time 86 minutes) was 2.399. For the same compound, the “490 nm/450 nm, Average” value ([2]; time 88 minutes) was 2.414, the “490 nm/450 nm, Average” value ([2]; time 90 minutes) was 2.411 and the “490 nm/450 nm, Average” value ([2]; time 92 minutes) was 2.4274. The “490 nm/450 nm, Average” value ([2]; time 94 minutes) was 2.4259, the “490 nm/450 nm, Average” value ([2]; time 96 minutes) was 2.426 and the “490 nm/450 nm, Average” value ([2]; time 98 minutes) was 2.438. For the same compound, the “490 nm/450 nm, Average” value ([2]; time 100 minutes) was 2.447, the “490 nm/450 nm, Average” value ([2]; time 102 minutes) was 2.452 and the “490 nm/450 nm, Average” value ([2]; time 104 minutes) was 2.453. For the same compound, the “490 nm/450 nm, Average” value ([2]; time 106 minutes) was 2.461, the “490 nm/450 nm, Average” value ([2]; time 108 minutes) was 2.469 and the “490 nm/450 nm, Average” value ([2]; time 110 minutes) was 2.47. For the same compound, the “490 nm/450 nm, Average” value ([2]; time 112 minutes) was 2.479, the “490 nm/450 nm, Average” value ([2]; time 114 minutes) was 2.475 and the “490 nm/450 nm, Average” value ([2]; time 116 minutes) was 2.485. For the same compound, the “490 nm/450 nm, Average” value ([2]; time 118 minutes) was 2.494 and the “490 nm/450 nm, Average” value ([2]; time 120 minutes) was 2.492.
